Columns and labels:
TxA₂ Synthase [1] = biological target: T1, TxA₂ Synthase (Rattus norvegicus, UniProt P49430); conditions: statement on the known compound, no data shown; cited from earlier work
T1 construct: Blood was withdrawn from the abdominal aorta of the animals under light ether anesthesia; from tissue; host or cells: rat whole blood (clotting, serum TxB₂ by RIA)
T1 sequence (P49430 1-533): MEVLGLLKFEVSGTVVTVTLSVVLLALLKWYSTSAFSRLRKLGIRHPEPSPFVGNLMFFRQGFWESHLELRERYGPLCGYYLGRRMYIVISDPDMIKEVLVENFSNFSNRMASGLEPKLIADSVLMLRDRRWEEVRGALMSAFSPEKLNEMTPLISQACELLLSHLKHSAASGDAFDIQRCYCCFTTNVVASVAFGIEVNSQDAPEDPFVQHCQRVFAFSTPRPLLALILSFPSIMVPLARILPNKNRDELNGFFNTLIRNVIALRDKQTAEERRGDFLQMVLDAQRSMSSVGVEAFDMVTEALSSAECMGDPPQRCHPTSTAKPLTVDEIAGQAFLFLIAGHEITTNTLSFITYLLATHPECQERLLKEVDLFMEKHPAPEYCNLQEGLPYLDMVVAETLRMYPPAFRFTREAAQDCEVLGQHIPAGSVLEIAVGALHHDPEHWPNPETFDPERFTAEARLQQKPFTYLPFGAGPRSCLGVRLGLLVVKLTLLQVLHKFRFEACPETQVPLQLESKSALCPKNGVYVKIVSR

TxA₂ Synthase [2] = biological target: T1, TxA₂ Synthase; experiment: In vitro effects on TxB₂ production in rat whole blood during clotting (TxA₂ synthesis, RIA); assay type: cell-based; conditions: result in words, compared with reference compound Dazoxiben
Method: The compounds of formula (I) were for example tested for their ability to inhibit TxA₂ Synthase activity (as reflected by TxB₂ generated in whole blood during clotting or in isolated glomeruli) in vitro in the rat. The in vitro experiments were carried out as follows: The effect of the compounds on TxA₂ synthesis was evaluated in serum.
Blood was withdrawn from the abdominal aorta of the animals under light ether anesthesia.
Samples were then allowed to clot for 1 h at 37°C, centrifuged at 3000 rpm for 10 min, serum collected and stored at -20°C until assayed. TxB₂ levels were determined by RIA according to previously described procedures [Patrono et al. - Thromb.

TxA₂ receptor = biological target: T2, TxA₂ receptor (Homo sapiens, UniProt P21731); experiment: [³H]-SQ 29,548 binding displacement in washed human platelets (TxA₂ antagonism); conditions: result in words, compared with Sulotroban (BM 13177)
T2 construct: endogenous in cells; host or cells: washed human platelets from healthy volunteers
T2 sequence (P21731 1-343): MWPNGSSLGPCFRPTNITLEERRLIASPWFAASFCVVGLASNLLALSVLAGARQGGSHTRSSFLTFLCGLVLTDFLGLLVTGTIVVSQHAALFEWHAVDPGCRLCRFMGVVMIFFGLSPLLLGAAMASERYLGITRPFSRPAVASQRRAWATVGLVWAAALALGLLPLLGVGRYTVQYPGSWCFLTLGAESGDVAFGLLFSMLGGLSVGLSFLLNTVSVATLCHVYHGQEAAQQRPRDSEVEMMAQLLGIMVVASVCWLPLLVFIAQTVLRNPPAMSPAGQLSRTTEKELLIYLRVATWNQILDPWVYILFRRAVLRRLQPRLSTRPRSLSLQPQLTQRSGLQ
Method: The experiments were carried out as follows: Blood from healthy volunteers of both sexes who had not taken any medication for at least 10 days was collected into one-tenth volume of acid citrate dextrose containing indomethacin (28 µM). Platelet rich plasma (PRP), obtained by centrifugation of the blood at 200 x g for 20 min, was washed twice (1000 x g for 10 min). The platelets were then resuspended in Tyrode-Hepes buffer (pH 7.4) to a final concentration of 5-10x10⁻⁸ cells/ml and incubated for 0-60 min at 25°C with [³H]-SQ 29,548 (5 nM). For displacement experiments various concentrations (10⁻⁹ -10⁻⁴M) of competing ligands were added and incubated for 30 min at 25°C.
Non-specific binding was determined in the presence of 50 µM U46619 and was approximately 5% of total binding of [³H]-SQ 29,548. After incubation, 4 ml of ice-cold TRIS-HCl buffer (10 mM, pH 7.4) was added to each tube and the reaction mixture was immediately filtered by suction through a Whatman GE/C glass filter disc which was washed 2 times with ice-cold TRIS-HCl (4 ml) and counted for radioactivity by a Packard-β-counter.
The binding data were analyzed by computerized non-linear curve fitting using the Ligand program and expressed as IC₅₀.

Compound | TxA₂ synthase inhibitory activity (TxA₂ Synthase [1]) | inhibitory activity on TxA₂ synthesis (TxA₂ Synthase [2]) | affinity for the receptor (TxA₂ receptor)
O=C(O)COc1ccc(CCNS(=O)(=O)c2ccccc2)cc1 [BM 13177, Sulotroban] | devoid of TxA₂ synthase inhibitory activity |  | 
(±)-(E)-5-[2-benzyl-2-(imidazol-1-yl)-1-cyclohexylethylidene]-aminooxybutanohydroxamic acid [FCE 27790] |  | marked inhibitory activity on TxA₂ synthesis significantly more potent than that of reference compound Dazoxiben | good affinity for the receptor which is better than that shown by the known compound Sulotroban (BM 13177)
Cc1ccc(CC(/C(=N/OCCCCC(=O)O)C2CCCCC2)n2ccnc2)cc1 (racemic) [FCE 27818, (±)-(E)-5-[2-(4-methylbenzyl)-2-(imidazol-1-yl)-1-cyclohexylethylidene]aminooxypentanoic acid] |  | marked inhibitory activity on TxA₂ synthesis significantly more potent than that of reference compound Dazoxiben | good affinity for the receptor which is better than that shown by the known compound Sulotroban (BM 13177)

— patent EP0635494A1, “2-(Imidazol-1-yl)2-benzylethylidene-aminooxyalkyl-hydroxamic acid derivatives” (PHARMACIA S.p.A., priority 1993, dated 1995)
